In PubChem BioAssay (NCI):
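48-hour exposure; five concentrations; linearly interpolated endpoints. TGI: concentration producing complete growth inhibition.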

Assays:
Assay in all cases: NCI anticancer screen, dose series, 48 h
[1] = tested on: U251 CNS
[2] = tested on: UACC-257 melanoma
[3] = tested on: HCC-2998 colon
[4] = tested on: SF-268 CNS
[5] = tested on: KM20L2 colon
[6] = tested on: SN12C renal
[7] = tested on: HCT-116 colon
[8] = tested on: HOP-18 NSCLC
[9] = tested on: NCI-H522 lung
[10] = tested on: OVCAR-3 ovarian
[11] = tested on: 786-0 renal
[12] = tested on: LOX IMVI melanoma
[13] = tested on: MOLT-4 leukemia
[14] = tested on: DLD-1 colon
[15] = tested on: COLO 205 colon
[16] = tested on: TK-10 renal
[17] = tested on: HCT-15 colon
[18] = tested on: NCI-H460 lung
[19] = tested on: DMS 273 small cell lung
[20] = tested on: SK-MEL-2 melanoma
[21] = tested on: OVCAR-4 ovarian
[22] = tested on: SNB-75 CNS
[23] = tested on: CAKI-1 renal
[24] = tested on: M19-MEL melanoma
[25] = tested on: ACHN renal
[26] = tested on: IGROV1 ovarian
[27] = tested on: OVCAR-8 ovarian
[28] = tested on: NCI-H226 lung
[29] = tested on: A549 NSCLC
[30] = tested on: DMS 114 small cell lung
[31] = tested on: SK-MEL-28 melanoma
[32] = tested on: NCI-H23 lung
[33] = tested on: SW-620 colon
[34] = tested on: HT29 colon
[35] = tested on: UO-31 renal
[36] = tested on: CCRF-CEM leukemia
[37] = tested on: HOP-92 NSCLC
[38] = tested on: LXFL 529 NSCLC
[39] = tested on: A498 renal
[40] = tested on: UACC-62 melanoma
[41] = tested on: MALME-3M melanoma
[42] = tested on: K-562 leukemia
[43] = tested on: SK-OV-3 ovarian
[44] = tested on: OVCAR-5 ovarian
[45] = tested on: RXF 393 renal
[46] = tested on: M14 melanoma
[47] = tested on: SNB-78 CNS
[48] = tested on: RPMI-8226 leukemia
[49] = tested on: EKVX NSCLC
[50] = tested on: SK-MEL-5 melanoma
[51] = tested on: SNB-19 CNS
[52] = tested on: MDA-MB-435
[53] = tested on: T-47D breast
[54] = tested on: MCF7 breast
[55] = tested on: KM12 colon
[56] = tested on: PC-3 prostate
[57] = tested on: SF-539 CNS
[58] = tested on: DU-145 prostate
[59] = tested on: HS 578T breast
[60] = tested on: NCI/ADR-RES ovarian
[61] = tested on: SF-295 CNS
[62] = tested on: MDA-MB-231 breast
[63] = tested on: SR leukemia
[64] = tested on: HOP-62 NSCLC
[65] = tested on: HL-60(TB) leukemia
[66] = tested on: XF 498 CNS

With `COC(=O)C1=C(C)N(NC(=O)Nc2ccccc2)C2(N)N(NC(=O)Nc3ccccc3)C(C)=C(C(=O)OC)C12C(=O)OC` (stereo not drawn) the TGI [1] was > 100 µM, the TGI [2] was > 100 µM and the TGI [3] was > 100 µM. The TGI [4] was > 100 µM, the TGI [5] was > 100 µM and the TGI [6] was > 100 µM. The TGI [7] was > 100 µM, the TGI [8] was > 100 µM and the TGI [9] was > 100 µM. For the same compound, the TGI [10] was > 100 µM, the TGI [11] was > 100 µM and the TGI [12] was > 100 µM. For the same compound, the TGI [13] was 71.3 µM, the TGI [14] was > 100 µM and the TGI [15] was > 100 µM. The TGI [16] was > 100 µM, the TGI [17] was > 100 µM and the TGI [18] was > 100 µM. The TGI [19] was > 100 µM, the TGI [20] was > 100 µM and the TGI [21] was > 100 µM. For the same compound, the TGI [22] was > 100 µM, the TGI [23] was 82.9 µM and the TGI [24] was 78.7 µM. For the same compound, the TGI [25] was > 100 µM, the TGI [26] was 55.5 µM and the TGI [27] was > 100 µM. For the same compound, the TGI [28] was > 100 µM, the TGI [29] was > 100 µM and the TGI [30] was > 100 µM. For the same compound, the TGI [31] was > 100 µM, the TGI [32] was > 100 µM and the TGI [33] was > 100 µM. For the same compound, the TGI [34] was > 100 µM, the TGI [35] was > 100 µM and the TGI [36] was > 100 µM. The TGI [37] was > 100 µM, the TGI [38] was > 100 µM and the TGI [39] was > 100 µM. For the same compound, the TGI [40] was > 100 µM, the TGI [41] was > 100 µM and the TGI [42] was > 100 µM. For the same compound, the TGI [43] was > 100 µM, the TGI [44] was > 100 µM and the TGI [45] was > 100 µM. The TGI [46] was > 100 µM, the TGI [47] was 84.6 µM and the TGI [48] was 78.5 µM.

`CC(=O)OCc1cc2c(s1)C(=O)c1sccc1C2=O` was tested, and the TGI [1] was 0.706 µM, the TGI [2] was 0.244 µM and the TGI [3] was 3.22 µM. For the same compound, the TGI [4] was 0.417 µM, the TGI [5] was 5.49 µM and the TGI [6] was 0.261 µM. The TGI [7] was 3.38 µM, the TGI [8] was 0.276 µM and the TGI [49] was 0.36 µM. It also gave a TGI [9] of 0.295 µM, a TGI [10] of 0.492 µM and a TGI [11] of 1.84 µM. For the same compound, the TGI [50] was 0.0569 µM, the TGI [51] was 0.317 µM and the TGI [12] was 0.0468 µM. For the same compound, the TGI [14] was 0.342 µM, the TGI [15] was 3.03 µM and the TGI [16] was 3.73 µM. It also gave a TGI [17] of 0.303 µM, a TGI [18] of 0.322 µM and a TGI [19] of 0.299 µM. It also gave a TGI [52] of 0.0322 µM, a TGI [20] of 0.249 µM and a TGI [53] of 0.882 µM. For the same compound, the TGI [21] was 0.334 µM, the TGI [22] was 0.12 µM and the TGI [54] was 0.416 µM. For the same compound, the TGI [23] was 3.24 µM, the TGI [25] was 0.246 µM and the TGI [26] was 2.79 µM. For the same compound, the TGI [27] was 0.576 µM, the TGI [55] was 0.562 µM and the TGI [28] was 1.24 µM. It also gave a TGI [56] of 0.563 µM, a TGI [57] of 0.285 µM and a TGI [29] of 0.368 µM. For the same compound, the TGI [30] was 0.283 µM, the TGI [58] was 0.104 µM and the TGI [31] was 0.0721 µM. It also gave a TGI [32] of 0.0378 µM, a TGI [33] of 0.268 µM and a TGI [59] of 0.422 µM. It also gave a TGI [60] of 0.413 µM, a TGI [61] of 0.162 µM and a TGI [34] of 1.43 µM. It also gave a TGI [35] of 0.391 µM, a TGI [37] of 1.68 µM and a TGI [38] of 1 µM. It also gave a TGI [39] of 3.23 µM, a TGI [40] of 0.305 µM and a TGI [41] of 0.659 µM. The TGI [42] was > 100 µM, the TGI [43] was 3.3 µM and the TGI [44] was 0.332 µM. The TGI [45] was 0.31 µM, the TGI [46] was < 0.0189 µM and the TGI [47] was 28.3 µM. The TGI [62] was 0.692 µM.

In the case of `CCOC(=O)Oc1ccc2[nH]c3c(C)cc(N)c(C)c3c2c1`, the TGI [63] is reported as > 100 µM, the TGI [2] is reported as > 100 µM and the TGI [3] is reported as > 100 µM. For the same compound, the TGI [4] was > 100 µM, the TGI [6] was > 100 µM and the TGI [7] was > 100 µM. The TGI [8] was > 100 µM, the TGI [49] was > 100 µM and the TGI [9] was > 100 µM. For the same compound, the TGI [10] was > 100 µM, the TGI [64] was > 100 µM and the TGI [11] was > 100 µM. The TGI [50] was > 100 µM, the TGI [51] was > 100 µM and the TGI [12] was > 100 µM. The TGI [13] was > 100 µM, the TGI [14] was > 100 µM and the TGI [15] was > 100 µM. For the same compound, the TGI [16] was > 100 µM, the TGI [17] was > 100 µM and the TGI [18] was > 100 µM. The TGI [19] was > 100 µM, the TGI [20] was > 100 µM and the TGI [21] was > 100 µM. For the same compound, the TGI [22] was > 100 µM, the TGI [23] was > 100 µM and the TGI [24] was > 100 µM. The TGI [25] was > 100 µM, the TGI [27] was > 100 µM and the TGI [65] was > 100 µM. For the same compound, the TGI [55] was > 100 µM, the TGI [28] was > 100 µM and the TGI [57] was > 100 µM. For the same compound, the TGI [29] was > 100 µM, the TGI [30] was > 100 µM and the TGI [31] was > 100 µM. The TGI [32] was > 100 µM, the TGI [33] was > 100 µM and the TGI [61] was > 100 µM. The TGI [34] was > 100 µM, the TGI [35] was > 100 µM and the TGI [36] was > 100 µM. The TGI [41] was > 100 µM, the TGI [42] was > 100 µM and the TGI [44] was > 100 µM. The TGI [46] was > 100 µM, the TGI [47] was > 100 µM and the TGI [48] was > 100 µM. The TGI [66] was > 100 µM.

`CN1OC(CO)CC12C1CC3CC(C1)CC2C3` (stereo not drawn) was tested, and the TGI [63] was > 100 µM, the TGI [1] was > 100 µM and the TGI [3] was > 100 µM. For the same compound, the TGI [4] was > 100 µM, the TGI [5] was > 100 µM and the TGI [6] was > 100 µM. The TGI [7] was > 100 µM, the TGI [8] was > 100 µM and the TGI [9] was > 100 µM. The TGI [10] was > 100 µM, the TGI [64] was > 100 µM and the TGI [11] was > 100 µM. For the same compound, the TGI [50] was > 100 µM, the TGI [51] was > 100 µM and the TGI [12] was > 100 µM. The TGI [13] was > 100 µM, the TGI [14] was > 100 µM and the TGI [15] was > 100 µM. For the same compound, the TGI [16] was > 100 µM, the TGI [17] was > 100 µM and the TGI [18] was > 100 µM. The TGI [19] was > 100 µM, the TGI [20] was > 100 µM and the TGI [21] was > 100 µM. The TGI [22] was > 100 µM, the TGI [23] was > 100 µM and the TGI [24] was > 100 µM. The TGI [25] was > 100 µM, the TGI [26] was > 100 µM and the TGI [27] was > 100 µM. The TGI [65] was > 100 µM, the TGI [55] was > 100 µM and the TGI [57] was > 100 µM. For the same compound, the TGI [29] was > 100 µM, the TGI [30] was > 100 µM and the TGI [31] was > 100 µM. The TGI [32] was > 100 µM, the TGI [33] was > 100 µM and the TGI [61] was > 100 µM. The TGI [34] was > 100 µM, the TGI [35] was > 100 µM and the TGI [36] was > 100 µM. For the same compound, the TGI [37] was > 100 µM, the TGI [38] was > 100 µM and the TGI [39] was > 100 µM. For the same compound, the TGI [40] was > 100 µM, the TGI [41] was > 100 µM and the TGI [42] was > 100 µM. The TGI [43] was > 100 µM, the TGI [44] was > 100 µM and the TGI [45] was > 100 µM. The TGI [46] was > 100 µM and the TGI [48] was > 100 µM.
